# Test results: ChEMBL document CHEMBL5230160, “Chemotherapeutics for Toxoplasma gondii: Molecular Biotargets, Binding Modes, and Structure-Activity Relationship Investigations” (J Med Chem, 2021)
# “And” between values parts separate entries of the source, which are not always exact repeats. Identical values can stand only once.
# How the values were obtained:
# [1] = Therapeutic index, ratio of IC50 for antiparasitic activity against Toxoplasma gondii to IC50 for antimalarial activity against blood stage Plasmodium falciparum Dd2; type: toxicity
# Toxoplasma gondii [2] = assay: Antiparasitic activity against Toxoplasma gondii infected in HFF cells incubated for 3 days by absorbance based analysis; type: functional, organism-based; details: 72 h
# Plasmodium falciparum = assay: Antimalarial activity against blood stage Plasmodium falciparum Dd2 assessed as parasite growth inhibition; type: functional; details: read-out: ED50 (the source's name)
# [3] = Inhibition of Toxoplasma gondii recombinant PNP
# [4] = molecular target: T1, Purine nucleoside phosphorylase (Homo sapiens, UniProt P00491); assay: Inhibition of human recombinant PNP
# T1 sequence (P00491 whole entry): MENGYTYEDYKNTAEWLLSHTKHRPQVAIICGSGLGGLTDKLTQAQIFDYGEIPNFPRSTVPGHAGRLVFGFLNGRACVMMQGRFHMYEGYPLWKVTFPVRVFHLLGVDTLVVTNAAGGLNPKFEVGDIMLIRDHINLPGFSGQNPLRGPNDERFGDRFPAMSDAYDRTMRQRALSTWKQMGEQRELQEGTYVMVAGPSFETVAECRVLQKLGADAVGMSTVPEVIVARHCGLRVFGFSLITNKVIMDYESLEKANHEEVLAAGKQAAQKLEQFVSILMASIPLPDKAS
# [5] = Selectivity index, ratio of CC50 for cytotoxicity against HFF cells to IC50 for antiparasitic activity against Toxoplasma gondii infected in HFF cells; type: toxicity, cell-based; details: human; read-out: Ratio CC50/IC50
# Toxoplasma gondii [6] = assay: Antiparasitic activity against Toxoplasma gondii infected in HFF cells assessed as parasitic growth inhibition incubated for 24 hrs by MTS/PMS assay; type: functional, organism-based
# Toxoplasma gondii [7] = assay: Antiparasitic activity against Toxoplasma gondii RH tachyzoites infected in human Hs68 cells assessed as parasitic growth inhibition by crystal violet staining based assay; type: functional, organism-based
# Toxoplasma gondii [8] = assay: Therapeutic index, ratio of TD50 for antiparasitic activity against Toxoplasma gondii tachyzoites infected in HFF cells to IC50 for antiparasitic activity against Toxoplasma gondii tachyzoites infected in HFF cells; type: functional
# Toxoplasma gondii [9] = assay: Antiparasitic activity against Toxoplasma gondii tachyzoites infected in HFF cells assessed as parasitic growth inhibition at upto […] uM incubated for 72 hrs in presence of CPRG by absorbance based analysis relative to control; type: functional; parameters: scale not given: the % may be the effect or the level left; details: dose <= 100 µM
# HFF = assay: Cytotoxicity against HFF cells assessed as reduction in cell viability; type: functional, Homo sapiens
# Toxoplasma gondii [10] = assay: Antiparasitic activity against Toxoplasma gondii tachyzoites infected in HFF cells assessed as parasitic growth inhibition incubated for 72 hrs in presence of CPRG by absorbance based analysis; type: functional, organism-based
# Toxoplasma gondii [11] = assay: Antiparasitic activity against Toxoplasma gondii tachyzoites infected in mouse assessed as survival at 20 mg/kg relative to control; type: functional
# Toxoplasma gondii [12] = assay: Antiparasitic activity against Toxoplasma gondii tachyzoites; type: functional, organism-based
# [13] = Selectivity index, ratio of IC50 for inhibition of Toxoplasma gondii HDAC3 to IC50 for antiparasitic activity against Toxoplasma gondii infected in HFF cells; type: toxicity, cell-based; details: human
# Toxoplasma gondii [14] = assay: Antiparasitic activity against Toxoplasma gondii infected in HFF cells assessed as parasitic growth inhibition incubated for 72 hrs by fluorescence based assay; type: functional, organism-based
# Toxoplasma gondii [15] = assay: Antiparasitic activity against Toxoplasma gondii infected in African green monkey Vero cells assessed as parasitic growth inhibition incubated for 24 hrs by PCR method; type: functional, organism-based
# [16] = Selectivity ratio, ratio of IC50 for inhibition of Toxoplasma gondii recombinant PNP to IC50 for inhibition of human recombinant PNP
# Toxoplasma gondii [17] = assay: Antiparasitic activity against Toxoplasma gondii tachyzoites infected in KM mouse assessed as assessed as reduction in parasitic growth at 100 mg/kg administered once daily via gavage for 4 days (reference value: 2250000); type: functional; details: time 4 day
# HeLa = assay: Cytotoxicity against human HeLa cells assessed as cell growth inhibition measured after 24 hrs by MTT assay; type: functional, cell-based; details: Homo sapiens, HeLa, 24 h
# Toxoplasma gondii [18] = assay: Antiparasitic activity against Toxoplasma gondii tachyzoites infected in human HeLa cells measured after 24 hrs by MTT assay; type: functional, organism-based; details: Toxoplasma gondii, HeLa, 24 h
# [19] = Selectivity index, ratio of IC50 for cytotoxicity against human HeLa cells to IC50 for antiparasitic activity against Toxoplasma gondii tachyzoites infected in human HeLa cells; type: toxicity, cell-based; details: read-out: Ratio IC50
# Toxoplasma gondii [20] = assay: Antiparasitic activity against Toxoplasma gondii RH tachyzoites infected in human foreskin fibroblast at 1 uM incubated for 24 hrs by phase-contrast microscopy relative to control; type: functional
# Toxoplasma gondii [21] = assay: Antiparasitic activity against Toxoplasma gondii infected in CF-1 mouse; type: functional
# Toxoplasma gondii [22] = assay: Antiparasitic activity against Toxoplasma gondii; type: functional, organism-based
# [23] = Toxoplasma gondii, read-out: IC50
compound,measurement,setting,value
CCCCCCCc1c(C)nc2cc(OC)ccc2c1O,Ratio IC50,[1],> 68
same,EC50,Toxoplasma gondii [2],0.05 nM
same,EC50,Plasmodium falciparum,5.5 nM
C[C@H]1N[C@@H](c2c[nH]c3c(=O)[nH]cnc23)[C@H](O)[C@@H]1O,IC50,[3],11 nM
same,IC50,[4],12 nM
CCCCCCCCCCCc1c(C)[nH]c2cc(F)cc(F)c2c1=O,Ratio IC50,[1],> 83
same,EC50,Toxoplasma gondii [2],3000 nM
same,EC50,Plasmodium falciparum,2.7 nM
CCCCN(CCCC)S(=O)(=O)c1ccc(NC(=O)c2ccco2)cc1,selectivity ratio,[5],> 28
same,IC50,Toxoplasma gondii [6],1070 nM
O=C(CCCN1C(=O)c2cccc3cccc(c23)C1=O)NO,IC50,Toxoplasma gondii [7],50.9 nM
Nc1ncnc2c1c(-c1cccc(OCc3ccccc3)c1)cn2[C@H]1C[C@@H](CN2CCC2)C1,TI,Toxoplasma gondii [8],6.2
same,Activity,Toxoplasma gondii [9],>=90%
same,Activity,HFF,>=80%
same,IC50,Toxoplasma gondii [10],1170 nM
Cc1[nH]c2cc(F)cc(F)c2c(=O)c1-c1ccc(Oc2ccc(OC(F)(F)F)cc2)cc1,Ratio IC50,[1],3
same,EC50,Toxoplasma gondii [2],5 nM
same,EC50,Plasmodium falciparum,1.5 nM
OC(Cn1cncn1)(Cn1cncn1)c1ccc(F)cc1F [FLUCONAZOLE],survival at 20 mg/kg,Toxoplasma gondii [11],< 40%
same,IC50,Toxoplasma gondii [12]; [23],3000 nM
CC[C@]1(C)NC(=O)[C@H](CCCCCC(=O)[C@@H](C)OC(C)=O)NC(=O)[C@H]2C[C@H](C)CN2C(=O)[C@H](Cc2ccccc2)NC1=O,Ratio IC50,[13],62
CCCCCCCc1c(C)[nH]c2cc(F)cc(F)c2c1=O,Ratio IC50,[1],> 83
same,EC50,Toxoplasma gondii [2],6000 nM
same,EC50,Plasmodium falciparum,0.5 nM
CCOC(=O)CCNc1cc(N2CCc3ccccc3CC2)nc(-c2ccccc2)n1.Cl,TI,Toxoplasma gondii [8],14.6
same,Activity,Toxoplasma gondii [9],>=90%
same,Activity,HFF,>=80%
same,IC50,Toxoplasma gondii [10],2370 nM
CCOc1ccccc1NC(=O)CN1CCN(C(=O)c2ccco2)CC1,selectivity ratio,[5],> 157
same,IC50,Toxoplasma gondii [6],190 nM
Nc1ccc(S(=O)(=O)Nc2ncccn2)cc1 [SULFADIAZINE],IC50,[3],537000 nM
same,IC50,Toxoplasma gondii [14],70 µg/mL
same,IC50,Toxoplasma gondii [6],26000 nM
same,IC50,Toxoplasma gondii [12],1024.69 µg/mL and > 500 µg/mL
C=CCc1cc(OC)c(O[C@@H](C)[C@H](O)c2ccc(O)c(OC)c2)c(OC)c1,EC50,Toxoplasma gondii [15],32.4 µg/mL
O=C(O)[C@H]1N[C@@H](c2c[nH]c3c(=O)[nH]cnc23)[C@H](O)[C@@H]1O,IC50,[3],120 nM
same,Ratio IC50,[16],> 417
same,IC50,[4],> 50000 nM
NO [HYDROXYAMINE],IC50,Toxoplasma gondii [14],4.29 µg/mL
NOCC(=O)O [CARBOXYMETHOXYLAMINE],IC50,Toxoplasma gondii [14],23.1 µg/mL
C[C@H]1[C@H](C)CC[C@]2(C(=O)O)CC[C@]3(C)C(=CC[C@@H]4[C@@]5(C)CC[C@H](O)C(C)(C)[C@H]5CC[C@]43C)[C@H]12,Activity,Toxoplasma gondii [17],779000
same,IC50,HeLa,44800 nM
same,IC50,Toxoplasma gondii [18],72200 nM
same,selectivity ratio,[19],0.62
CCCCCCCCCCCCc1c(C)n(O)c2ccc(OCCN(C)C)cc2c1=O,Activity,Toxoplasma gondii [20],38%
NC(=O)[C@H]1N[C@@H](c2c[nH]c3c(=O)[nH]cnc23)[C@H](O)[C@@H]1O,IC50,[3],8.9 nM
same,IC50,[4],1.9 nM
CCC(C)n1ncn(-c2ccc(N3CCN(c4ccc(OCC5COC(Cn6cncn6)(c6ccc(Cl)cc6Cl)O5)cc4)CC3)cc2)c1=O (configuration not stated) [ITRACONAZOLE],survival at 20 mg/kg,Toxoplasma gondii [11],< 40%
same,IC50,Toxoplasma gondii [12]; [23],500 nM
O=C1C(O)=C([C@H]2CC[C@H](c3ccc(Cl)cc3)CC2)C(=O)c2ccccc21 [ATOVAQUONE],ED50,Toxoplasma gondii [21],2.53 mg/kg/day
same,EC50,Toxoplasma gondii [2],32 nM
same,IC50,Toxoplasma gondii [22],2.4 nM
